Results published in US7674464B2, “Intracellular interleukin-1 receptor antagonists” (The University of Tennessee Research Foundation, priority 2004, dated 2010).
pKd: −log10 of the molar value. Read-outs that look alike come from different tables or passages of the source.

Assays:
[1] = system: ICAM-1; assay: IL-1β-induced ICAM-1 expression on human dermal fibroblasts; format: cell-based
Experimental: Confluent fibroblast monolayers were cultured for […] with IL-1ra peptides and then for 24 h with IL-1β. ICAM expression on fibroblast monolayers was then quantitated.
Further, since IL-1 upregulates ICAM-1 expression on a variety of cells including fibroblasts, the ability of the peptides disclosed in Table 5 to inhibit IL-1β induced ICAM-1 expression on human dermal fibroblasts was examined. Briefly, fibroblasts were seeded in wells of flat bottom 96 well tissue culture plates (NUNC, Roskilde, Denmark) (1×10^4 cells […] Maintenance Medium). After 72 h, the culture medium was removed from each well and replaced with 450 μl Maintenance Medium and 25 μl of IL-1ra peptides or hrsIL-1ra (100 ng/ml). After incubation at 37° C. for 2 h in 5% CO2 humidified atmosphere, 25 μl hrIL-1β (100 pg/mL final concentration) was added to wells containing IL-1ra peptides or hrsIL-1ra. Wells with 50 μl PBS served as a negative control. PBS 25 μl+[…] IL-1β (100 pg/ml final concentration) was a positive control. Plates were incubated an additional 24 h, after which medium was removed from each well and the cells were fixed with 100 μl of 3.8% formaldehyde in PBS for 5-7 minutes at room temperature. The cells were rinsed twice with culture medium, and 100 μl of monoclonal mouse anti-ICAM-1 antibody (AMAC, Inc., Westbrook, Me.; diluted 0.2 mg original stock diluted 1:800 in culture medium) was applied to designated wells. The plate was then incubated at 4° C. overnight.
After washing the plate thrice with 300 μl of 0.1% BSA-PBS, 200 μl of secondary antibody, goat anti-mouse IgG antibody-conjugated to horseradish peroxidase (Pierce, Rockford, Ill.) diluted 1:4000 in 1% BSA-PBS, was added to each well and the plate was incubated at room temperature for 2 h. After a final wash with 0.1% BSA-PBS, 100 μl of peroxidase substrate solution (Pierce) containing 2,2′-azino-di[3-ethylbenzthiazoline sulfonate] (Kirkegaard & Perry Laboratories, Inc., Gaithersburg, Md.) was added to each well. This was followed 30-40 minutes later by reading of the optical density (OD) at 405 nm by a Microplate Autoreader (Bio-Tek Instruments, Inc., Winooski, Vt.). The color solution was discarded and the plate was then washed twice with PBS. Finally, the cells were digested with 30 μl of 0.6 M NaOH overnight, and the amount of protein in each well was determined using BCA assay reagents (Pierce). ICAM-1 expression was presented as OD/mg protein. […] The hrsIL-1ra (100 ng/mL) inhibited IL-1β-induced ICAM-1 expression to 6 O.D. units/mg of cellular protein.

[2] = target: T1, type I IL-1R (Mus musculus, UniProt P13504); assay: [125I] IL-1beta competitive binding to type I IL-1 receptors on EL4 6.1 cells; set-up: IL-1beta from type I IL-1Rs on the EL46.1 cells; endogenous in cells; host or cells: EL4 6.1 (murine T cell line); species or system murine
T1 sequence (P13504 20-576): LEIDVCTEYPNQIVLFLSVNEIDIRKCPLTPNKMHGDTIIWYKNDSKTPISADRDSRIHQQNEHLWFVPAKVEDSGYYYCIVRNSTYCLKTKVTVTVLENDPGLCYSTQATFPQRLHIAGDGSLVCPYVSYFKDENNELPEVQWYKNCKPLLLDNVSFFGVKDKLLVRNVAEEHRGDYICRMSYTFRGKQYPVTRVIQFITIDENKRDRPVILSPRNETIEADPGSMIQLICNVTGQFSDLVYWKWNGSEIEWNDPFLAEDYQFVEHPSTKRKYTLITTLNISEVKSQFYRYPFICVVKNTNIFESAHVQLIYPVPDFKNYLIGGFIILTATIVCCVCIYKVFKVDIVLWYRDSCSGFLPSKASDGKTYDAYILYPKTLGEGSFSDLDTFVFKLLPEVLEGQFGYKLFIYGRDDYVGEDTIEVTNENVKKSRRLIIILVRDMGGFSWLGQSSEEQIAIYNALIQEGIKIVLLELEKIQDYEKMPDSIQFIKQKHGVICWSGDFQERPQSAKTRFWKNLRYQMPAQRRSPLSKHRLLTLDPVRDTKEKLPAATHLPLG
Experimental: IL-1 beta for binding to type I IL-1 receptors on murine cells. EL46.1 cells were incubated at 4° C. in presence of the sodium azide for 2 hr with and without each of the IL-1ra peptides or with soluble human recombinant interleukin 1ra (shrIL-1ra) as a control. Cells were then incubated with [^125I]hrIL-1, transferred to microfuge tubes containing phthalolate oil, centrifuged and free and bound radioactivity determined. Non-specific binding was determined in the presence of 100× excess concentration of cold hrIL-1 beta.
None of the peptides were able to displace [^125I] IL-1beta from type I IL-1Rs on the EL46.1 cells (FIG. 19). Additionally a competitive binding assay was performed in which the IL-1ra peptides were added to the EL4 cells at the same time [^125I] was added. No displacement of [^125I] IL-1 beta was observed from its receptors in the presence of these IL-1ra peptides.

[3] = system: PGE2; assay: IL-1β-induced fibroblast PGE2 synthesis, RIA; format: cell-based, human
Experimental: Confluent fibroblast monolayer cultures were preincubated with IL-1ra peptides for 2 h and then with hrIL-1β for 24 h. PGE2 was quantitated by RIA.
Additionally, since IL-1β stimulates PGE2 synthesis by fibroblasts, the effect of peptides disclosed in Table 5 on the PGE2 production by fibroblasts was examined. Briefly, Maintenance Medium in multi-well plates comprising the fibroblasts that were grown to confluency for 3 days was changed to Maintenance Medium containing 2.5% FCS (450 μl/well). This was followed by addition of IL-1ra peptides or hrsIL-1ra (25 μl aliquots) to culture wells 2 hrs prior to addition of hrIL-1β (100 pg/ml). After an additional 24 h incubation, PGE2 was measured in these culture supernatants. PGE2 was extracted from fibroblast culture supernatants and measured by a previously described radioimmunoassay technique (Ballou et al., 1990; Postlethwaite et al., 1989). It was observed that IL-1ra peptide with SEQ ID NO: 15 inhibited IL-1-induced fibroblast synthesis of PGE2 (FIG. 23). Recombinant IL-1ra (100 ng/ml) inhibited IL-1-induced PGE2 production to a level of 150 pg/ml.

[4] = target: T1, type I IL-1R; set-up: host or cells: EL4.IL-2 murine thymoma cells; settings: murine thymoma cell line EL4.IL-2; read-out: affinity (Kp) for type I IL-1R; cited from earlier work
[5] = system: collagenase (MMP-1); assay: IL-1β-induced collagenase (MMP-1) production by dermal fibroblasts, ELISA; format: cell-based, human
Experimental: Confluent fibroblast monolayer cultures were treated for 2 hr with IL-1ra peptides and cultured for 48 h with hrIL-1β. Collagenase protein was measured in culture supernatants by ELISA.
(§1) Furthermore, the effect of the IL-1ra peptides on the stimulation of MMP-1 and TIMP expression was examined. Briefly, fibroblasts were seeded in wells of Flacon 3008 multiwell plates (5×10^4 cells/500 μl Maintenance Medium). After 72 h culture, the medium was removed from each well and replaced with Maintenance Medium (450 μl) containing 5% FCS and 25 μl of IL-1ra peptides or hrsIL-1ra peptide being tested. Two hrs later 25 μl IL-1β (100 pg/ml) was added to appropriate wells. Plates were incubated for 48 h, at which time medium was collected from each well. Levels of TIMP and collagenase produced by fibroblasts during culture were measured by specific ELISA techniques as previously described (Postlethwaite et al., 1988).

[6] = system: collagenase (MMP-1); assay: as above; format: cell-based, human; settings: same wells as collagenase assay
[7] = system: D10.G4.1 T cells; assay: lymphocyte mitogenesis assay: IL-1α-stimulated proliferation of D10.G4.1 T cells; format: cell-based, murine; settings: peptides added 1 hour before IL-1α (10 ng/ml)
Experimental: An hour prior to the addition of hrIL-1α, the IL-1ra peptides were added to cultures of murine T cell line, D10.G4.1 and ^3H thymidine incorporation was quantitated.
Since sIL-1ra blocks IL-1 stimulation of T cells, the abilities of the IL-1ra peptides of Table 5 to inhibit mitogenesis of murine D10.G4.1 cells in response to IL-1α were assessed by performing lymphocyte mitogenesis assay. Briefly, different concentrations of IL-1ra peptides were added to culture 1 hour prior to addition of IL-1α (10 ng/ml). The results are expressed as mean cpm of quadruplicate determinations corrected for background. The standard error of the mean for each sample tested was 10% or less. None of the peptides disclosed in Table 5 inhibited IL-1α stimulation of proliferation of D10.G4.1 T cells (FIG. 20). Further, the uptake of ^125I IL-1ra peptide with SEQ ID NO: 13 by dermal fibroblasts was investigated. Briefly, the SEQ ID NO: 13 peptide (25 μg in 125 μl 0.125 sodium borate buffer pH 8.5) was labeled with ^125I-Bolton Hunter Reagent (New England Nuclear, Boston, Mass.) according to manufacturer's instructions. The labeled IL-1ra was separated from the free ^125I by passage over a Bio-Gel P-2 (BioRad, Richmond, Calif.) 1 ml column equilibrated and eluted with phosphate buffered saline containing 0.1% gelatin. […]

[8] = system: TIMP-1; assay: IL-1β-stimulated TIMP-1 production by fibroblasts, ELISA; format: cell-based, human
Experimental: TIMP-1 was measured in the same fibroblast culture supernatants as in FIG. 21.
as §1

[9] = listed as 60-90 (SEQ ID NO: 15)

**Q.** What does the source list for “hrsIL-1ra: soluble human recombinant interleukin 1ra, used as control [reference compound]”?
**A.** level to which IL-1β-induced ICAM-1 expression was inhibited ([1]; 100 ng/mL): 6 O.D. units/mg of cellular protein; displacement of [125I] IL-1 beta from EL4 cells ([2]; 100× excess): greater than 90%; level to which IL-1-induced PGE2 production was inhibited ([3]; 100 ng/ml): 150 pg/mL; pKd [4]: 9.82

**Q.** For “RPSGRKSSKMQAFRIWDVNQKTFYLRNNQLVAGYL (IL-1ra peptides representing the mature form of human sIL-1ra) [IL-1ra 1-35, synthetic peptide, residues 1-35 of mature human sIL-1ra]”, which “competition with / displacement of [125I] IL-1beta from type I IL-1Rs” value ([2]; EL4 6.1 cells) is on record?
**A.** did not competitively inhibit the binding

**Q.** And the “concentrations at which IL-1 induced collagenase synthesis was inhibited” value ([5]; dermal fibroblasts, FIG. 21)?
**A.** ≥ 10^−10 M

**Q.** What about the “inhibition of IL-1-induced collagenase production by fibroblasts” value ([5]; listed as 1-35 (SEQ ID NO: 13)) of the same substance?
**A.** blocked

**Q.** And the “inhibition of IL-1-induced collagenase production by fibroblasts” value ([5]; listed as IL-1ra peptide 1-35)?
**A.** inhibited

**Q.** What about the “fibroblast growth (counting trypsinized cells in hemocytometer)” value [6] of the same substance?
**A.** unchanged

**Q.** For “IHGGKMCLSCVKSGDETRLQLEAVNITDLSE (IL-1ra peptides representing the mature form of human sIL-1ra) [IL-1ra 60-90, synthetic peptide, residues 60-90 of IL-1ra]”, which “inhibition of IL-1β-induced ICAM-1 expression on fibroblasts” value (shortened to “inhibition … on fibroblasts”) [1, 9] is on record?
**A.** blocked

**Q.** And the “inhibition … on fibroblasts” value ([1]; listed as IL-1ra peptide 60-90)?
**A.** inhibited

**Q.** And the “inhibition … on fibroblasts” value ([1]; listed as SEQ ID NO: 15)?
**A.** inhibited the ICAM-1 expression on cultured fibroblasts in a dose dependent manner

**Q.** What about the “inhibition of IL-1-induced collagenase production by fibroblasts” value [5] of the same substance?
**A.** failed to block

**Q.** What about the “inhibition of IL-1-stimulated proliferation of D10.G4.1 T cells” value [7] of the same substance?
**A.** did not block

**Q.** What about the “inhibition of IL-1-induced fibroblast PGE2 synthesis” value [3, 9] of the same substance?
**A.** blocked

**Q.** What about the “inhibition of IL-1-induced fibroblast PGE2 synthesis” value ([3]; listed as IL-1ra peptide 60-90) of the same substance?
**A.** inhibited

**Q.** What about the “inhibition of IL-1-induced fibroblast PGE2 synthesis” value ([3]; listed as SEQ ID NO: 15) of the same substance?
**A.** inhibited

**Q.** What about the “inhibition of IL-1β-induced TIMP-1 production by fibroblasts” value [8] of the same substance?
**A.** failed to block
